Measured values: patent US20260258050A1, “IMMUNOMODULATOR” (HITGEN INC., priority 2023, published 2026)
pIC50: −log10 of the molar value.

Legend:
Human IL-17A [1] = biological target: T1, Human IL-17A (Homo sapiens, UniProt Q16552); experiment: IL-17A enzyme-linked immunosorbent assay (competitive ELISA, IL-17A/IL-17Ra receptor-ligand binding); parameters: purchased Sino Biological Inc. 12047-H07B; conditions: human IL-17A coated plate, human IL-17Ra, read-out: IC50, inhibitory activity of compounds on human IL-17A
T1 sequence (Q16552 20-155 limits assumed): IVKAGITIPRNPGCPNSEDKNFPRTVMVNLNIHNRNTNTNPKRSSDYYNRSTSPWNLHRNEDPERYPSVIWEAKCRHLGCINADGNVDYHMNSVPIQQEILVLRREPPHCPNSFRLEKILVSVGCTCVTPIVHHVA
How it was run: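 Competitive ELISA with plates coated with human IL-17A at 0.2 μg/ml, blocked with 5% skim milk. Compound pre-incubated with IL-17A 10 min at 25 °C, then 16 nM IL-17Ra stock added for 30 min. Bound receptor detected by anti-Fc HRP/TMB, A450. IC50 from variable-slope fit of blank-corrected residual activity.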

Human IL-17A [2] = biological target: T1, Human IL-17A; experiment: Inhibition of human IL-17A protein-induced GROα/CXCL1 production in HT-29 cells; format: cell-based; parameters: purchased R&D 317-ILB; host or cells: added exogenously to HT-29 cells; conditions: 30 ng/mL human IL-17A protein, 48 h, GROα in supernatant by ELISA kit, read-out: Inhibitory IC50 of compounds on HT-29 cell GROα/CXCL1
How it was run: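 Compound dilutions were preincubated 1 h at 37 °C with 30 ng/mL human IL-17A, then added to HT-29 cells (5×10^4/well) for 48 h at 37 °C. GROα in supernatant quantified by ELISA; IC50 for inhibition of its production. Positive control: IL-17A antibody at […].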

| SMILES | pIC50 (Human IL-17A [1]) | pIC50 (Human IL-17A [2]) |
| --- | --- | --- |
| Cc1[nH]nc2c1-c1cnc(NC(=O)[C@@H](NC(=O)c3ccnn3CCCF)C(C3CC3)C3CC3)cc1COCC2 [compound 124] | ≥ 7.30 | ≥ 7.00 |
| Cc1[nH]nc2c1-c1cc(F)c(NC(=O)[C@@H](NC(=O)c3ccnn3C(C)C)C(C3CC3)C3CC3)cc1CN(CC1CC1)CC2 [compound 166] | ≥ 7.30 | 6.30 to 7.00 |
| Cc1[nH]nc2c1-c1cc(F)c(NC(=O)[C@@H](NC(=O)c3ccnn3C(C)C)C(C3CC3)C3CC3)cc1CN(C1CCC(F)(F)CC1)C(=O)C2 [compound 168] | ≥ 7.30 | ≥ 7.00 |
| Cc1[nH]nc2c1-c1cc(F)c(NC(=O)[C@@H](NC(=O)c3ccnn3C(C)C)C(C3CC3)C3CC3)cc1CN(C1CCC1)C(=O)C2 [compound 170] | ≥ 7.30 | ≥ 7.00 |
| Cc1[nH]nc2c1-c1cc(F)c(NC(=O)[C@@H](NC(=O)c3ccnn3C(C)C)C(C3CC3)C3CC3)cc1CN(C1CCOCC1)CC2 [compound 174] | ≥ 7.30 | ≥ 7.00 |
| Cc1[nH]nc2c1-c1cnc(NC(=O)[C@@H](NC(=O)c3ccnn3C(C)C)C(C3CC3)C3CC3)cc1CN(C1CC1)C(=O)C2 [compound 191] | ≥ 7.30 | ≥ 7.00 |
| Cc1[nH]nc2c1-c1cnc(NC(=O)[C@@H](NC(=O)c3ccnn3C(C)C)C(C3CC3)C3CC3)cc1CN(CC(F)F)C(=O)C2 [compound 192] | ≥ 7.30 | ≥ 7.00 |
| Cc1[nH]nc2c1-c1cnc(NC(=O)[C@@H](NC(=O)c3ccnn3C(C)C)C(C3CC3)C3CC3)cc1CN(C1CC(F)(F)C1)C(=O)C2 [compound 194] | ≥ 7.30 | ≥ 7.00 |
| Cc1[nH]nc2c1-c1cnc(NC(=O)[C@@H](NC(=O)c3ccnn3C(C)C)C(C3CC3)C3CC3)cc1CN(C(C)C)CC2 [compound 200] | ≥ 7.30 | 6.30 to 7.00 |
| Cc1[nH]nc2c1-c1cnc(NC(=O)[C@@H](NC(=O)c3conc3C3CC3)C(C3CC3)C3CC3)cc1CN(C1CC1)CC2 [compound 215] | ≥ 7.30 | ≥ 7.00 |
| CCn1nccc1C(=O)N[C@H](C(=O)Nc1cc2c(cn1)-c1c(n[nH]c1C)CCN(C1CC1)C2)C(C1CC1)C1CC1 [compound 217] | ≥ 7.30 | ≥ 7.00 |
| Cc1[nH]nc2c1-c1cc(F)c(NC(=O)[C@@H](NC(=O)c3ccnn3CCCF)C(C3CC3)C3CC3)cc1CN(C1CC1)CC2 [compound 218] | ≥ 7.30 | ≥ 7.00 |
| Cc1[nH]nc2c1-c1cc(F)c(NC(=O)[C@@H](NC(=O)/C(F)=C\C(C)C)C(C3CC3)C3CC3)cc1COCC2 [compound 229] | ≥ 7.30 | ≥ 7.00 |
| Cc1[nH]nc2c1-c1cnc(NC(=O)[C@@H](NC(=O)c3conc3C(C)C)C(C3CC3)C3CC3)cc1COCC2 [compound 234] | ≥ 7.30 | 6.30 to 7.00 |
| Cc1[nH]nc2c1-c1cnc(NC(=O)[C@@H](NC(=O)/C(F)=C\C(C)C)C(C3CC3)C3CC3)cc1COCC2 [compound 238] | ≥ 7.30 | ≥ 7.00 |
| Cc1[nH]nc2c1-c1cnc(NC(=O)[C@@H](NC(=O)/C(F)=C\C3CC3)C(C3CC3)C3CC3)cc1COCC2 [compound 239] | ≥ 7.30 | ≥ 7.00 |
| CCc1nocc1C(=O)N[C@H](C(=O)Nc1cc2c(cn1)-c1c(n[nH]c1C)CCOC2)C(C1CC1)C1CC1 [compound 240] | ≥ 7.30 | 6.30 to 7.00 |

Second part, the compound after the results:

| pIC50 (Human IL-17A [1]) | pIC50 (Human IL-17A [2]) | SMILES |
| --- | --- | --- |
| ≥ 7.30 | 6.30 to 7.00 | Cc1[nH]nc2c1-c1cc(F)c(NC(=O)[C@@H](NC(=O)c3ccnn3CC3COC3)C(C3CC3)C3CC3)cc1COCC2 [compound 115] |
| ≥ 7.30 | ≥ 7.00 | Cc1[nH]nc2c1-c1cc(F)c(NC(=O)[C@@H](NC(=O)c3ccnn3C(C)C)C(C3CC3)C3CC3)cc1CN(C1CCOCC1)C(=O)C2 [compound 167] |
| ≥ 7.30 | ≥ 7.00 | Cc1[nH]nc2c1-c1cc(F)c(NC(=O)[C@@H](NC(=O)c3ccnn3C(C)C)C(C3CC3)C3CC3)cc1CN(C1CC(F)(F)C1)C(=O)C2 [compound 169] |
| ≥ 7.30 | ≥ 7.00 | Cc1[nH]nc2c1-c1cc(F)c(NC(=O)[C@@H](NC(=O)c3ccnn3C(C)C)C(C3CC3)C3CC3)cc1CN(C1CC(F)(F)C1)CC2 [compound 176] |
| ≥ 7.30 | 6.30 to 7.00 | Cc1[nH]nc2c1-c1cnc(NC(=O)[C@@H](NC(=O)c3ccnn3C(C)C)C(C3CC3)C3CC3)cc1CN(Cc1ccccc1)C(=O)C2 [compound 182] |
| ≥ 7.30 | ≥ 7.00 | Cc1[nH]nc2c1-c1cnc(NC(=O)[C@@H](NC(=O)c3ccnn3C(C)C)C(C3CC3)C3CC3)cc1CN(CC(C)(F)F)C(=O)C2 [compound 193] |
| ≥ 7.30 | ≥ 7.00 | Cc1[nH]nc2c1-c1cnc(NC(=O)[C@@H](NC(=O)c3ccnn3C(C)C)C(C3CC3)C3CC3)cc1CN(C(C)C)C(=O)C2 [compound 195] |
| ≥ 7.30 | 6.30 to 7.00 | CC(=O)N1CCc2n[nH]c(C)c2-c2cnc(NC(=O)[C@@H](NC(=O)c3ccnn3C(C)C)C(C3CC3)C3CC3)cc2C1 [compound 196] |
| ≥ 7.30 | ≥ 7.00 | Cc1[nH]nc2c1-c1cnc(NC(=O)[C@@H](NC(=O)c3ccnn3C(C)C)C(C3CC3)C3CC3)cc1CN(C1CC1)CC2 [compound 198] |
| ≥ 7.30 | ≥ 7.00 | Cc1[nH]nc2c1-c1cnc(NC(=O)[C@@H](NC(=O)c3ccnn3C(C)C)C(C3CC3)C3CC3)cc1CN(CC(C)(F)F)CC2 [compound 199] |
| ≥ 7.30 | ≥ 7.00 | Cc1[nH]nc2c1-c1cnc(NC(=O)[C@@H](NC(=O)c3ccnn3C(C)C)C(C3CC3)C3CC3)cc1CN(C1CCC1)CC2 [compound 201] |
| ≥ 7.30 | ≥ 7.00 | Cc1[nH]nc2c1-c1cnc(NC(=O)[C@@H](NC(=O)c3ccnn3C(C)C)C(C3CC3)C3CC3)cc1CN(CC(F)F)CC2 [compound 202] |
| ≥ 7.30 | ≥ 7.00 | Cc1[nH]nc2c1-c1cnc(NC(=O)[C@@H](NC(=O)c3conc3C(C)C)C(C3CC3)C3CC3)cc1CN(C1CC1)CC2 [compound 214] |
| ≥ 7.30 | ≥ 7.00 | CCc1nocc1C(=O)N[C@H](C(=O)Nc1cc2c(cn1)-c1c(n[nH]c1C)CCN(C1CC1)C2)C(C1CC1)C1CC1 [compound 216] |
| ≥ 7.30 | ≥ 7.00 | Cc1[nH]nc2c1-c1cc(F)c(NC(=O)[C@@H](NC(=O)/C(F)=C\C3CC3)C(C3CC3)C3CC3)cc1COCC2 [compound 230] |
| ≥ 7.30 | 6.30 to 7.00 | Cc1[nH]nc2c1-c1cnc(NC(=O)[C@@H](NC(=O)c3ccnn3CC(F)(F)F)C(C3CC3)C3CC3)cc1COCC2 [compound 236] |
| ≥ 7.30 | 6.30 to 7.00 | Cc1[nH]nc2c1-c1cnc(NC(=O)[C@@H](NC(=O)c3ccnn3C3CC3)C(C3CC3)C3CC3)cc1COCC2 [compound 237] |
| ≥ 7.30 | 6.30 to 7.00 | Cc1[nH]nc2c1-c1cnc(NC(=O)[C@@H](NC(=O)c3conc3C3CC3)C(C3CC3)C3CC3)cc1COCC2 [compound 241] |
